Measurements published in US20250270246A1, “LINCOSAMIDES AND USES THEREOF” (President and Fellows of Harvard College, priority 2022, published 2025).
Where a name gives a salt, the structure may show the parent alone. Read-outs that look alike come from different tables or passages of the source.

Columns and labels:
Experiment in all cases: MIC by broth microdilution (CLSI)
Assay type in all cases: cell-based
S. aureus Clinical (cfr) = details: for MIC: Staphylococcus aureus, 24 h, read-out: MIC S. aureus Clinical (cfr)
Description: (§1) Minimum inhibitory concentrations (MICs) were determined by the broth microdilution method following the Clinical and Laboratory Standards Institute (CLSI) guidelines. Test organisms consisted of standard reference strains from the American Type Culture Collection (ATCC; Manassa, VA, USA) and clinical isolates obtained from JMI Laboratories Inc. (North Liberty, IA, USA), Micromyx repository (MMX; Kalamazoo, MI, USA), and Massachusetts Eye and Ear Hospital (Boston, USA). Before the start of the MIC experiment, standard and test compound stock solutions were prepared in dimethyl sulfoxide (DMSO, Aldrich D2650) at a stock concentration of 2,560 μg/mL. The compound concentration range typically employed for each experiment was 64-0.06 μg/mL (2.5% final DMSO concentration). Iboxamycin was used as a comparator in all experiments. All bacterial strains were sub-cultured on blood agar plates (tryptic soy agar with 5% sheep blood, Hardy Diagnostics) and incubated overnight at 35° C. Organisms were suspended in cation-adjusted Mueller-Hinton broth (CaMHB, BD 212322) and optical density was adjusted to 0.5 McFarland standard. Suspensions were further diluted to obtain a final inoculum of 5×10^5 CFU/mL for broth microdilution experiments. The minimum concentration of compound required to inhibit visible bacterial growth after 24 h of incubation was recorded as the MIC in μg/mL. MICs for P. aeruginosa were recorded in cation-adjusted Mueller-Hinton broth which had been pre-treated with Chelex 100 ion exchange resin according to procedures reported in Ito et al. Antimicrob Agents Chemother (2016) 60 (12), 7396-7401.

[1] = tested on: E. coli ATCC 25922 (HAV#006); details: for MIC: Escherichia coli, ATCC25922, 24 h, read-out: MIC E. coli ATCC 25922
Description: as §1

[2] = tested on: S. aureus ATCC 29213 (HAV#001); details: for MIC: Staphylococcus aureus, ATCC29213, 24 h, read-out: MIC S. aureus ATCC 29213
Description: as §1

E. coli lptD mutant = details: CaMHB, 24 h incubation; for MIC: Escherichia coli, 24 h, read-out: MIC E. coli lptD mutant, lptD mutant / ΔlptD mutant
Description: as §1

S. aureus MMX 3035 = details: for MIC: Staphylococcus aureus, MMX3035, 24 h, read-out: MIC S. aureus MMX 3035
Description: as §1

E. faecium JMI-990536 = details: for MIC: Enterococcus faecium, JMI990536, 24 h, read-out: MIC E. faecium JMI-990536
Description: as §1

E. coli ΔtolC = details: CaMHB, 24 h incubation; for MIC: Escherichia coli, 24 h, read-out: MIC E. coli ΔtolC, ΔtolC
Description: as §1

[3] = tested on: A. baumannii ATCC 19606 (HAV#010); details: for MIC: Acinetobacter baumannii, ATCC19606, 24 h, read-out: MIC A. baumannii ATCC 19606
Description: as §1

K. pneumoniae JMI-991193 = details: Klebsiella pneumoniae, JMI991193, 24 h, read-out: MIC K. pneumoniae JMI-991193
Description: as §1

[4] = tested on: E. faecalis ATCC 29212 (HAV#005); details: for MIC: Enterococcus faecalis, ATCC29212, 24 h, read-out: MIC E. faecalis ATCC 29212
Description: as §1

[5] = Clinical (cfr), CaMHB, 24 h incubation
[6] = HAV#006, ATCC 25922, CaMHB, 24 h incubation
[7] = HAV#001, ATCC 29213, CaMHB, 24 h incubation
[8] = MMX 3035, CaMHB, 24 h incubation
[9] = JMI-990536, CaMHB, 24 h incubation
[10] = HAV#010, ATCC 19606, CaMHB, 24 h incubation
[11] = JMI-991193, CaMHB, 24 h incubation
[12] = HAV#005, ATCC 29212, CaMHB, 24 h incubation

SMILES: CC(=O)OC[C@@H]1C/C=C\C[C@@H](NC(=O)[C@H]2NC[C@@H]3C[C@H](CC(C)C)CCO[C@H]32)[C@H]2O[C@H](S1)[C@H](O)[C@@H](O)[C@H]2O [FSA1607032, ((1R,3S,8R,9R,10R,11S,12R,Z)-10,11,12-trihydroxy-8-((4S,5aS,8S,8aR)-4-isobutyloctahydro-2H-oxepino[2,3-c]pyrrole-8-carboxamido)-13-oxa-2-thiabicyclo[7.3.1]tridec-5-en-3-yl)methyl acetate formate salt]
- MIC (S. aureus Clinical (cfr)): 16 µg/mL
- MIC [1]: 8 µg/mL
- MIC [2]: 0.5 µg/mL
- MIC (E. coli lptD mutant): 2 µg/mL
- MIC (S. aureus MMX 3035): 4 µg/mL
- MIC (E. faecium JMI-990536): 2 µg/mL
- MIC (E. coli ΔtolC): 0.25 µg/mL
- MIC [3]: 32 µg/mL
- MIC (K. pneumoniae JMI-991193): 64 µg/mL
- MIC [4]: 0.5 µg/mL

SMILES: CC(C)C[C@@H]1CCO[C@@H]2[C@H](CN[C@@H]2C(=O)N[C@@H]2C/C=C/[C@H](O)CS[C@H]3O[C@H]2[C@H](O)[C@H](O)[C@H]3O)C1 [FSA1608009, (4S,5aS,8S,8aR)-4-isobutyl-N-((1R,4S,8R,9R,10R,11S,12R,E)-4,10,11,12-tetrahydroxy-13-oxa-2-thiabicyclo[7.3.1]tridec-5-en-8-yl) octahydro-2H-oxepino[2,3-c]pyrrole-8-carboxamide formate salt]
- MIC (S. aureus Clinical (cfr); [5]): > 64 µg/mL
- MIC [1, 6]: > 64 µg/mL
- MIC [2, 7]: 32 µg/mL
- MIC (E. coli lptD mutant): > 64 µg/mL
- MIC (S. aureus MMX 3035; [8]): > 64 µg/mL
- MIC (E. faecium JMI-990536; [9]): > 64 µg/mL
- MIC (E. coli ΔtolC): > 64 µg/mL
- MIC [3, 10]: > 64 µg/mL
- MIC (K. pneumoniae JMI-991193; [11]): > 64 µg/mL
- MIC [4, 12]: > 64 µg/mL

SMILES: CC(C)C[C@@H]1CCO[C@@H]2[C@H](CN[C@@H]2C(=O)N[C@@H]2C(C)/C=C/CCCSC3OC2C(O)C(O)C3O)C1 (stereo in doubt) [FSA1609094, (4S,5aS,8S,8aR)-4-isobutyl-N-((1R,8S,9R,10R,11R,12S,13R,E)-11,12,13-trihydroxy-8-methyl-14-oxa-2-thiabicyclo[8.3.1]tetradec-6-en-9-yl) octahydro-2H-oxepino[2,3-c]pyrrole-8-carboxamide formate salt]
- MIC S. aureus Clinical (cfr) (S. aureus Clinical (cfr); Clinical (cfr), CaMHB, 24 h incubation, formate salt): >32 µg/mL
- MIC E. coli ATCC 25922 ([1]; HAV#006, ATCC 25922, CaMHB, 24 h incubation, formate salt): >32 µg/mL
- MIC S. aureus ATCC 29213 ([2]; HAV#001, ATCC 29213, CaMHB, 24 h incubation, formate salt): 0.25 µg/mL
- MIC E. coli lptD mutant (E. coli lptD mutant; lptD mutant / ΔlptD mutant, formate salt): 32 µg/mL
- MIC S. aureus MMX 3035 (S. aureus MMX 3035; MMX 3035, CaMHB, 24 h incubation, formate salt): >32 µg/mL
- MIC E. faecium JMI-990536 (E. faecium JMI-990536; JMI-990536, CaMHB, 24 h incubation, formate salt): >32 µg/mL
- MIC E. coli ΔtolC (E. coli ΔtolC; ΔtolC, formate salt): 32 µg/mL
- MIC A. baumannii ATCC 19606 ([3]; HAV#010, ATCC 19606, CaMHB, 24 h incubation, formate salt): >32 µg/mL
- MIC (K. pneumoniae JMI-991193; [11]): > 32 µg/mL
- MIC E. faecalis ATCC 29212 ([4]; HAV#005, ATCC 29212, CaMHB, 24 h incubation, formate salt): 2 µg/mL

SMILES: CC(C)C[C@@H]1CCO[C@@H]2[C@H](CN[C@@H]2C(=O)N[C@@H]2C/C=C\C[C@@H](c3c[nH]nn3)S[C@H]3O[C@H]2[C@H](O)[C@H](O)[C@H]3O)C1 [FSA1607090, (4S,5aS,8S,8aR)-4-isobutyl-N-((1R,3S,8R,9R,10R,11S,12R,Z)-10,11,12-trihydroxy-3-(1H-1,2,3-triazol-4-yl)-13-oxa-2-thiabicyclo[7.3.1]tridec-5-en-8-yl) octahydro-2H-oxepino[2,3-c]pyrrole-8-carboxamide formate salt]
- MIC (S. aureus Clinical (cfr); [5]): > 64 µg/mL
- MIC [1, 6]: > 64 µg/mL
- MIC [2, 7]: 8 µg/mL
- MIC (E. coli lptD mutant): 8 µg/mL
- MIC (S. aureus MMX 3035; [8]): 32 µg/mL
- MIC (E. faecium JMI-990536; [9]): 16 µg/mL
- MIC (E. coli ΔtolC): 4 µg/mL
- MIC [3, 10]: > 64 µg/mL
- MIC (K. pneumoniae JMI-991193; [11]): > 64 µg/mL
- MIC [4, 12]: 32 µg/mL

SMILES: CC(C)C[C@@H]1CCO[C@@H]2[C@H](CN[C@@H]2C(=O)N[C@H]2[C@H]3O[C@H](SCCC/C=C\[C@H]2C)[C@H](O)[C@@H](O)[C@H]3O)C1 [FSA1609096, (4S,5aS,8S,8aR)-4-isobutyl-N-((1R,8R,9R,10R,11R,12S,13R,Z)-11,12,13-trihydroxy-8-methyl-14-oxa-2-thiabicyclo[8.3.1]tetradec-6-en-9-yl) octahydro-2H-oxepino[2,3-c]pyrrole-8-carboxamide formate salt]
- MIC (S. aureus Clinical (cfr); [5]): 0.25 µg/mL
- MIC [1, 6]: 2 µg/mL
- MIC [2, 7]: ≤ 0.06 µg/mL
- MIC (E. coli lptD mutant): 0.125 µg/mL
- MIC (S. aureus MMX 3035; [8]): 0.25 µg/mL
- MIC (E. faecium JMI-990536): 0.125 µg/mL
- MIC (E. coli ΔtolC): 0.25 µg/mL
- MIC [3, 10]: 1 µg/mL
- MIC (K. pneumoniae JMI-991193; [11]): 8 µg/mL
- MIC [4, 12]: ≤ 0.06 µg/mL

SMILES: CC(C)C[C@@H]1CCO[C@@H]2[C@H](CN[C@@H]2C(=O)N[C@@H]2C/C=C\C[C@@H](CN3CCCC3)S[C@H]3O[C@H]2[C@H](O)[C@H](O)[C@H]3O)C1 [FSA1606086, (4S,5aS,8S,8aR)-4-isobutyl-N-((1R,3S,8R,9R,10R,11S,12R,Z)-10,11,12-trihydroxy-3-(pyrrolidin-1-ylmethyl)-13-oxa-2-thiabicyclo[7.3.1]tridec-5-en-8-yl) octahydro-2H-oxepino[2,3-c]pyrrole-8-carboxamide formate salt]
- MIC (S. aureus Clinical (cfr); [5]): > 64 µg/mL
- MIC [1, 6]: 64 µg/mL
- MIC [2, 7]: 16 µg/mL
- MIC (E. coli lptD mutant): 4 µg/mL
- MIC (S. aureus MMX 3035; [8]): 64 µg/mL
- MIC (E. faecium JMI-990536; [9]): 16 µg/mL
- MIC (E. coli ΔtolC): 2 µg/mL
- MIC [3, 10]: > 64 µg/mL
- MIC (K. pneumoniae JMI-991193; [11]): > 64 µg/mL
- MIC [4, 12]: 16 µg/mL

SMILES: CC(C)C[C@@H]1CCO[C@@H]2[C@H](CN[C@@H]2C(=O)N[C@@H]2C/C=C\C[C@@H](c3cn(-c4ccccc4)nn3)S[C@H]3O[C@H]2[C@H](O)[C@H](O)[C@H]3O)C1 [FSA1607075, (4S,5aS,8S,8aR)-4-isobutyl-N-((1R,3S,8R,9R,10R,11S,12R,Z)-10,11,12-trihydroxy-3-(1-phenyl-1H-1,2,3-triazol-4-yl)-13-oxa-2-thiabicyclo[7.3.1]tridec-5-en-8-yl) octahydro-2H-oxepino[2,3-c]pyrrole-8-carboxamide formate salt]
- MIC (S. aureus Clinical (cfr); [5]): 8 µg/mL
- MIC [1, 6]: 4 µg/mL
- MIC [2, 7]: 2 µg/mL
- MIC (E. coli lptD mutant): 2 µg/mL
- MIC (S. aureus MMX 3035; [8]): 4 µg/mL
- MIC (E. faecium JMI-990536; [9]): 2 µg/mL
- MIC (E. coli ΔtolC): 2 µg/mL
- MIC [3, 10]: 8 µg/mL
- MIC (K. pneumoniae JMI-991193; [11]): 32 µg/mL
- MIC [4, 12]: 2 µg/mL

SMILES: CC(C)C[C@@H]1CCO[C@@H]2[C@H](CN[C@@H]2C(=O)N[C@@H]2C/C=C\C[C@@H](c3cn(-c4ccc(F)cc4)nn3)S[C@H]3O[C@H]2[C@H](O)[C@H](O)[C@H]3O)C1 [FSA1608021, (4S,5aS,8S,8aR)—N-((1R,3S,8R,9R,10R,11S,12R,Z)-3-(1-(4-fluorophenyl)-1H-1,2,3-triazol-4-yl)-10,11,12-trihydroxy-13-oxa-2-thiabicyclo[7.3.1]tridec-5-en-8-yl)-4-isobutyloctahydro-2H-oxepino[2,3-c]pyrrole-8-carboxamide formate salt]
- MIC (S. aureus Clinical (cfr)): 4 µg/mL
- MIC [1]: 1 µg/mL
- MIC [2]: 0.5 µg/mL
- MIC (E. coli lptD mutant): 0.25 µg/mL
- MIC (S. aureus MMX 3035): 2 µg/mL
- MIC (E. faecium JMI-990536): 0.5 µg/mL
- MIC (E. coli ΔtolC): 1 µg/mL
- MIC [3]: 4 µg/mL
- MIC (K. pneumoniae JMI-991193): 4 µg/mL
- MIC [4]: 0.5 µg/mL
